Measured values from paper PMC9265530, “The Three Two-Pore Channel Subtypes from Rabbit Exhibit Distinct Sensitivity to Phosphoinositides, Voltage, and Extracytosolic pH” (Cells, 2022).

Columns and labels:
OcTPC3 [1] = biological target: T1, OcTPC3 (Oryctolagus cuniculus, UniProt B8Q2W0); assay: inside-out patch clamp, tail current at […] mV after +[…] mV step; format: biochemical; conditions: agonist; relative to 1 µM PI(3,5)P2; 4-s step to +100 mV; pH 7.2
T1 construct: gene TPCN3; C-terminal EGFP fusion (pEGFP-N1), transient in HEK293; previously cloned cDNA; dimer
T1 sequence (B8Q2W0 1-766): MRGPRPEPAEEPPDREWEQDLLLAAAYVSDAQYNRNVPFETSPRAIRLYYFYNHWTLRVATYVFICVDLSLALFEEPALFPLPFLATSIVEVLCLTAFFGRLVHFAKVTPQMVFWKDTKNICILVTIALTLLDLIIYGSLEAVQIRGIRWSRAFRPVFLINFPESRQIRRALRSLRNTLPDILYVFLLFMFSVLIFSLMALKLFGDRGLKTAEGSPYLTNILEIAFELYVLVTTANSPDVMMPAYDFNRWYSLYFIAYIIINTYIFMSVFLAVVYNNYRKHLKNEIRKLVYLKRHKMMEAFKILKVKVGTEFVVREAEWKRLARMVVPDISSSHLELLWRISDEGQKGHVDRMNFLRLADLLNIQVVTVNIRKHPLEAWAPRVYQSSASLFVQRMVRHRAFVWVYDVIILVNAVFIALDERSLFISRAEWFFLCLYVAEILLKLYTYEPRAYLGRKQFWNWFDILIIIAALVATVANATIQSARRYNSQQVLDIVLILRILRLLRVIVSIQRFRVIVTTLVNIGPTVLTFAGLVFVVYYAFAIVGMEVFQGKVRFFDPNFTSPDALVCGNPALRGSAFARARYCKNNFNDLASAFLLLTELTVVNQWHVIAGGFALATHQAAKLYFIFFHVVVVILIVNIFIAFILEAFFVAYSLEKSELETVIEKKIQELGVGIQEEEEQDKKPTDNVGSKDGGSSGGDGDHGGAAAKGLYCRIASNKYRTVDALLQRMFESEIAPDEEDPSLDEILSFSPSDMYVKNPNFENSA

OcTPC1 = tested on: T2, OcTPC1; assay: inside-out patch clamp, current at -100 mV; format: cell-based, Oryctolagus cuniculus; conditions: agonist; voltage ramps; cytoplasmic pH 7.2; room temperature; HEK293
T2 construct: gene TPCN1; full-length, C-terminal EGFP fusion (pEGFP-N1), transient in HEK293; cloned from rabbit kidney RNA; 815/817 residues match XM_017349553.1; dimer

OcTPC3 [2] = biological target: T1, OcTPC3; assay: inside-out patch clamp, tail current at […] mV after +[…] mV step; format: cell-based
OcTPC2 [3] = biological target: T3, OcTPC2 (Oryctolagus cuniculus, UniProt Z9ZIB8IF81); assay: whole-endolysosome patch clamp, current at -100 mV; format: cell-based; conditions: agonist; voltage ramps; vacuolin-1 enlarged vacuoles; cytoplasmic pH 7.2; room temperature; HEK293
T3 construct: full-length, C-terminal EGFP fusion (pEGFP-N1), transient in HEK293; cloned from rabbit kidney RNA; 749/753 residues match GBCT01193833.1; dimer

OcTPC2 [4] = biological target: T3, OcTPC2; assay: whole-endolysosome patch clamp, current at -100 mV; format: biochemical; conditions: inhibitor; against 100 nM PI(3,5)P2; voltage ramps

SMILES	% of PI(3,5)P2 response at 1 μM (OcTPC3 [1]) [%]	other results
CCCCCCCC(=O)OC[C@H](COP(=O)(O)O[C@@H]1[C@H](O)[C@H](OP(=O)(O)O)[C@@H](O)[C@H](O)[C@H]1O)OC(=O)CCCCCCC [PI3P]	93.8 ± 5.1	
CCCCCCCC(=O)OC[C@H](COP(=O)(O)O[C@@H]1[C@H](O)[C@H](OP(=O)(O)O)[C@@H](O)[C@H](OP(=O)(O)O)[C@H]1O)OC(=O)CCCCCCC [diC8 PI(3,5)P2]		EC50 (OcTPC1): 26.3 ± 5 nM; EC50 (OcTPC3 [2]): 142 ± 0.2 nM; EC50 (OcTPC2 [3]): 208 ± 8.1 nM
CCCCCCCC(=O)OC[C@H](COP(=O)(O)O[C@H]1[C@H](O)[C@@H](OP(=O)(O)O)[C@H](OP(=O)(O)O)[C@@H](OP(=O)(O)O)[C@H]1O)OC(=O)CCCCCCC [PI(3,4,5)P3]	7.0 ± 2.0	
CCCCCCCC(=O)OC[C@H](COP(=O)(O)O[C@H]1[C@H](O)[C@@H](O)[C@H](OP(=O)(O)O)[C@@H](OP(=O)(O)O)[C@H]1O)OC(=O)CCCCCCC [PI(3,4)P2]	29.9 ± 5.2	
CCCCCCCC(=O)OC[C@H](COP(=O)(O)O[C@@H]1[C@H](O)[C@H](O)[C@@H](OP(=O)(O)O)[C@H](OP(=O)(O)O)[C@H]1O)OC(=O)CCCCCCC [PI(4,5)P2]	9.0 ± 2.0	% inhibition at 1 μM (OcTPC2 [4]): 67.6 ± 5.3%
